In patent US5262439A (priority 1992, dated 1993):

Key:
[1] = tested on: LDL incubated with endothelial cells (EC); assay: Ability of endothelial cells (EC) to induce LDL oxidation after pretreatment (TBARS); format: cell-based; conditions: Set A, 3 hours at 37° C., LDL 24 hours
Protocol: (§1) Then the cells were thoroughly washed to remove any extracellular inhibitors. Specifically, they were washed three times with 3 ml of F-10 containing 10% fetal calf serum and then incubated with labeled LDL for an additional 24 hours. […] The values given are from a typical experiment from three or more separate experiments.

LDL [2] = assay: Subsequent copper modification of LDL recovered from pretreated endothelial cells; format: biochemical
Protocol: (§2) Nevertheless, after two subsequent incubations with LDL at 100 μg/ml for 24 hours each, 30-45% of the incorporated radioactivity was still associated with the cells. […] Thus, cells enriched in probucol, also released the antioxidant into the medium which may offer additional protection against oxidation. The rate of release of probucol from cells was not followed in these studies.

Solubility = format: physicochemical
Protocol: (§3) The product was purified by silicic acid column chromatography using increasing amounts of ether in hexane. The purified product gave a single spot on TLC (Rf 0.18) distinct from the parent compound (Rf 0.68). Upon alkaline hydrolysis, the compound yielded free probucol.
More than 96% of the labeled derivative readily went into the solution as the sodium salt and when incubated with macrophages was effectively taken up by the cells.

LDL [3] = assay: Inhibition of oxidative modification of LDL, compound present during 24 hour incubation; format: cell-based
[4] = tested on: LDL incubated with endothelial cells (EC); assay: Macrophage degradation of LDL previously incubated with pretreated endothelial cells (biological modification); format: cell-based; conditions: Set A, 3 hours at 37° C., LDL 24 hours
Protocol: as §1

[5] = tested on: LDL incubated with mouse peritoneal macrophages; assay: Ability of macrophages to oxidize LDL after preincubation with probucol or diglutaryl probucol (TBARS); format: cell-based
Protocol: (§4) After 48 hours the cells were washed 3 times with 3 ml of Ham's F-10 and then subjected to incubation with ^125 I-LDL (1100 μg/ml) in 2 ml of Ham's F-10 for 20 hours. TBARS and subsequent macrophage degradation were determined. The results are averages from a triplicate determination from a representative set.
(§5) After several washings with Ham's F-10, the cells were then incubated with 200 μg of ^125 I-LDL in 2 ml. of Ham's F-10 for 24 hours. […] However, because the probucol was obviously not in solution and might remain absorbed to the cell surface even after washing, it is possible that residual probucol on the cell surface accounted for the apparent protection during the second incubation, i.e., probucol from the cell surface might transfer into the LDL during the first part of the second incubation.
as §1

macrophages = assay: Uptake of ^14 C-labeled water-soluble derivative by macrophages; format: cell-based, mouse; conditions: for Cell associated ^14 C-radioactivity: 3 hours at 37° C.
Protocol: (§6) The cells were then washed three times with DME. […] The cells were dissolved in 1 ml of 0.01% Triton X-100 before the determination of radioactivity. Values for macrophages represent averages of duplicate determinations from one of two separate trials. Values for endothelial cells are from four individual cell incubations.

[6] = tested on: LDL incubated with mouse peritoneal macrophages; assay: Macrophage degradation of LDL previously incubated with pretreated macrophages (biological modification); format: cell-based
Protocol: as §4, §5, §1

endothelial cells [7] = assay: Uptake of ^14 C-labeled water-soluble derivative by endothelial cells; format: cell-based; conditions: 5 nmol added, 3 hours at 37° C., four individual cell incubations
Protocol: as §6

[8] = tested on: LDL incubated with endothelial cells; assay: Oxidation of LDL recovered from the medium of diglutaryl probucol-pretreated endothelial cells; format: cell-based; conditions: endothelial cells preincubated with 25 nmol for 3 hours
Protocol: as §2

[9] = Hydrolysis to free probucol; format: physicochemical
Text: A particularly preferred embodiment of the present invention is a class of dicarboxylic acid esters of probucol compounds which can be dissolved as sodium or potassium salts.
as §3

endothelial cells [10] = assay: Uptake, retention and release of probucol by endothelial cells incubated with ^14 C-labeled diglutaryl probucol; format: cell-based
Protocol: as §2

[11] = cited from earlier work
endothelial cells [12] = conditions: cited from earlier work
[13] = tested on: LDL receptor-deficient rabbits; conditions: cited from earlier work
rat = conditions: given orally for some time before tying off a renal artery; cited from earlier work
LDL [14] = conditions: cited from earlier work
[15] = Set B, macrophages pretreated with 10 μM, 3 hours at 37° C., LDL 24 hours
[16] = Set B, macrophages pretreated with 20 μM, 3 hours at 37° C., LDL 24 hours
[17] = Set B, macrophages pretreated with 30 μM, 3 hours at 37° C., LDL 24 hours
[18] = EC pretreated with 100 μM (probucol in ethanol)
[19] = macrophages pretreated with 500 nmol/ml probucol in ethanol, 48 hours, then LDL

SMILES: CC(C)(Sc1cc(C(C)(C)C)c(OC(=O)CCCC(=O)O)c(C(C)(C)C)c1)Sc1cc(C(C)(C)C)c(OC(=O)CCCC(=O)O)c(C(C)(C)C)c1 [diglutaryl probucol, probucol diglutarate]
- TBARS ([1]; EC pretreated with 25 μM): 12.1 nmol/mg protein
- TBARS ([1]; EC pretreated with 50 μM): 6.5 nmol/mg protein
- Modification of recovered LDL upon subsequent incubation with 5 μM copper (LDL [2]; endothelial cells preincubated with 25 nmol for 3 hours): readily modified
- Modification of recovered LDL upon subsequent incubation with 5 μM copper (LDL [2]; endothelial cells preincubated with 50-200 nmol): resistant to modification
- Solubility in organic solvents (Solubility; acid form): soluble in organic solvents
- Labeled derivative going into solution (Solubility; as the sodium salt): More than 96%
- Solubility in sodium bicarbonate solution (Solubility; sodium bicarbonate solution, after removal of organic solvent): can be dissolved in sodium bicarbonate solution
- inhibition at 2.5 µM (LDL [3]): > 50%
- Macrophage degradation ([4]; EC pretreated with 25 μM): 1.5 μg/5 h per mg cell protein
- Macrophage degradation ([4]; EC pretreated with 50 μM): 1.3 μg/5 h per mg cell protein
- TBARS [5, 15]: 5.3 nmol/mg protein
- TBARS [5, 16]: 4.1 nmol/mg protein
- TBARS [5, 17]: 3.3 nmol/mg protein
- Inhibition of LDL modification by pretreated cells ([5]; concentrations as low as 10 μM, 3 hours pretreatment): inhibited the modification completely
- Cell associated radioactivity in the form of the precursor, probucol diglutarate (macrophages; at 60 minutes): about half
- Cell associated ^14 C-radioactivity (macrophages; macrophages, 5 nmol added): 2.5 nmol
- Cell associated ^14 C-radioactivity (macrophages; macrophages, 10 nmol added): 3.7 nmol
- Cell associated ^14 C-radioactivity (macrophages; macrophages, 15 nmol added): 4.2 nmol
- Cell associated ^14 C-radioactivity (macrophages; macrophages, 20 nmol added): 5.2 nmol
- Cell associated ^14 C-radioactivity (macrophages; macrophages, 25 nmol added): 6.5 nmol
- Added radioactivity associated with the cells (macrophages; macrophages, after 2 hours): 25-30%
- Amount associated with the cells (macrophages; macrophages, after 2 hours): 2.5-6.5 nmol of probucol/~40 μg of cell protein
- Macrophage degradation [6, 15]: 2.2 μg/5 h per mg cell protein
- Macrophage degradation [6, 16]: 1.6 μg/5 h per mg cell protein
- Macrophage degradation [6, 17]: 1.4 μg/5 h per mg cell protein
- Cell associated ^14 C-radioactivity (endothelial cells [7]): 1.9 ± 0.14 nmol
- Oxidation of LDL recovered from the medium [8]: absence of oxidation
- Hydrolysis in the course of incubation ([9]; 24 hour incubation, medium): almost completely hydrolyzed
- Hydrolysis in aqueous solution ([9]; sodium salt in aqueous solution): slow hydrolysis
- Incorporated radioactivity still associated with the cells (endothelial cells [10]; 50-200 nmol, after two subsequent incubations with LDL at 100 μg/ml for 24 hours each): 30-45%
- Release of free probucol into the medium (endothelial cells [10]; endothelial cells incubated with 50-200 nmol, 24 hour incubation after washings): considerable release of free probucol into the medium

SMILES: CC(C)(Sc1cc(C(C)(C)C)c(O)c(C(C)(C)C)c1)Sc1cc(C(C)(C)C)c(O)c(C(C)(C)C)c1 [probucol, 4,4'-(isopropylidenedithio) bis(2,6-di-tert-butylphenol), reference compound]
- Solubility in lipid [11]: highly lipid soluble
- Solubility in water ([11]; water): almost insoluble in water
- TBARS [1, 18]: 42.5 nmol/mg protein
- Incorporation into endothelial cells (endothelial cells [12]; 50 μM probucol, 24 h): less than 1 μg of probucol/10^6 cells
- Rate of entrance into cells in culture (endothelial cells [12]; cells in culture): slow
- Solubility in medium (Solubility; 500 nmol/ml added in ethanol, medium grossly milky): very limited solubility
- Macrophage degradation [4, 18]: 6.4 μg/5 h per mg cell protein
- LDL modification by cells as compared to control cells not pretreated ([5]; cells preincubated with probucol 500 nmol/ml): modified LDL poorly as compared to control cells
- TBARS [5, 19]: 11.2 nmol/mg protein
- Progression of atherosclerosis [13]: slow the progression of atherosclerosis
- Post-perfusion injury in the kidney (rat): can limit the post-perfusion injury in the kidney
- Macrophage degradation [6, 19]: 2.1 μg/5 h per mg cell protein
- Oxidative modification of LDL (LDL [14]): block oxidative modification of LDL
- Probucol released into the medium (endothelial cells [10]; 24 hour incubation with LDL, 50-200 nmol diglutaryl probucol): about 7 nmol
- Probucol incorporated into the cells (endothelial cells [10]; endothelial cells, 50-200 nmol diglutaryl probucol): more than 15 nmol
